Source: ChEMBL document CHEMBL4411284, “Discovery of novel quaternary ammonium compounds based on quinuclidine-3-ol as new potential antimicrobial candidates” (Eur J Med Chem, 2019)
The source made the active and inactive calls. No cut-off for these calls is given here.

How the values were obtained:
Staphylococcus aureus [1] = experiment: Antimicrobial activity against Staphylococcus aureus ATCC 29213 after 24 to 48 hrs by broth microdilution assay; assay type: functional
Escherichia coli [2] = experiment: Bactericidal activity against Escherichia coli ATCC 25922 preincubated for 24 to 48 hrs followed by replating on MHA plates and measured after 18 hrs by broth microdilution assay; assay type: functional
HEK293 = experiment: Cytotoxicity against HEK293 cells assessed as reduction in cell viability after 48 hrs by MTS assay; assay type: cell-based; conditions: Homo sapiens, HEK293, 48 h
HeLa = experiment: Cytotoxicity against human HeLa cells assessed as reduction in cell viability after 48 hrs by MTS assay; assay type: cell-based
Staphylococcus aureus [3] = experiment: Induction of morphological changes in Staphylococcus aureus ATCC 29213 assessed as cell wall damage at MIC after 1 hr by atomic force microscopic analysis; assay type: functional, organism-based
Escherichia coli [4] = experiment: Antimicrobial activity against Escherichia coli ATCC 25922 after 24 to 48 hrs by broth microdilution assay; assay type: functional
Staphylococcus aureus [5] = experiment: Bactericidal activity against Staphylococcus aureus ATCC 29213 preincubated for 24 to 48 hrs followed by replating on MHA plates and measured after 18 hrs by broth microdilution assay; assay type: functional
Staphylococcus aureus [6] = experiment: Bactericidal activity against methicillin-resistant Staphylococcus aureus clinical isolate preincubated for 24 to 48 hrs followed by replating on MHA plates and measured after 18 hrs by broth microdilution assay; assay type: functional
Acinetobacter baumannii [7] = experiment: Bactericidal activity against Acinetobacter baumannii ATCC 19606 preincubated for 24 to 48 hrs followed by replating on MHA plates and measured after 18 hrs by broth microdilution assay; assay type: functional; conditions: ATCC 19606 = CIP 70.34 = JCM 6841
Listeria monocytogenes [8] = experiment: Bactericidal activity against Listeria monocytogenes ATCC 19111 (1/2a) preincubated for 24 to 48 hrs followed by replating on MHA plates and measured after 18 hrs by broth microdilution assay; assay type: functional
Klebsiella pneumoniae [9] = experiment: Bactericidal activity against Klebsiella pneumoniae ATCC 13883 preincubated for 24 to 48 hrs followed by replating on MHA plates and measured after 18 hrs by broth microdilution assay; assay type: functional
Staphylococcus aureus [10] = experiment: Antimicrobial activity against methicillin-resistant Staphylococcus aureus clinical isolate after 24 to 48 hrs by broth microdilution assay; assay type: functional
Salmonella typhimurium [11] = experiment: Bactericidal activity against Salmonella typhimurium WDCM 00031 preincubated for 24 to 48 hrs followed by replating on MHA plates and measured after 18 hrs by broth microdilution assay; assay type: functional, Salmonella enterica subsp. enterica serovar Typhimurium; conditions: Salmonella enterica
Escherichia coli [12] = experiment: Bactericidal activity against Escherichia coli clinical isolate preincubated for 24 to 48 hrs followed by replating on MHA plates and measured after 18 hrs by broth microdilution assay; assay type: functional
Escherichia coli [13] = experiment: Antimicrobial activity against Escherichia coli clinical isolate after 24 to 48 hrs by broth microdilution assay; assay type: functional
Aspergillus niger = experiment: Antifungal activity against Aspergillus niger after 24 to 48 hrs by broth microdilution assay; assay type: functional
Acinetobacter baumannii [14] = experiment: Antimicrobial activity against Acinetobacter baumannii ATCC 19606 after 24 to 48 hrs by broth microdilution assay; assay type: functional; conditions: ATCC 19606 = CIP 70.34 = JCM 6841
Listeria monocytogenes [15] = experiment: Antimicrobial activity against Listeria monocytogenes ATCC 19111 (1/2a) after 24 to 48 hrs by broth microdilution assay; assay type: functional
Candida albicans = experiment: Antifungal activity against Candida albicans ATCC 90029 after 24 to 48 hrs by broth microdilution assay; assay type: functional
Penicillium citrinum = experiment: Antifungal activity against Penicillium citrinum after 24 to 48 hrs by broth microdilution assay; assay type: functional
Streptococcus pyogenes [16] = experiment: Bactericidal activity against Streptococcus pyogenes ATCC 19615 preincubated for 24 to 48 hrs followed by replating on MHA plates and measured after 18 hrs by broth microdilution assay; assay type: functional
Salmonella typhimurium [17] = experiment: Antimicrobial activity against Salmonella typhimurium WDCM 00031 after 24 to 48 hrs by broth microdilution assay; assay type: functional, Salmonella enterica subsp. enterica serovar Typhimurium; conditions: Salmonella enterica
Acinetobacter baumannii [18] = experiment: Bactericidal activity against Acinetobacter baumannii clinical isolate preincubated for 24 to 48 hrs followed by replating on MHA plates and measured after 18 hrs by broth microdilution assay; assay type: functional
Enterococcus faecalis [19] = experiment: Antimicrobial activity against Enterococcus faecalis ATCC 29212 after 24 to 48 hrs by broth microdilution assay; assay type: functional
TERT-RPE1 = experiment: Cytotoxicity against human RPE1 cells assessed as reduction in cell viability after 48 hrs by MTS assay; assay type: cell-based; conditions: RPE-1, 48 h
Streptococcus pyogenes [20] = experiment: Antimicrobial activity against Streptococcus pyogenes ATCC 19615 after 24 to 48 hrs by broth microdilution assay; assay type: functional
Pseudomonas aeruginosa [21] = experiment: Bactericidal activity against Pseudomonas aeruginosa ATCC 27853 preincubated for 24 to 48 hrs followed by replating on MHA plates and measured after 18 hrs by broth microdilution assay; assay type: functional
Pseudomonas aeruginosa [22] = experiment: Antimicrobial activity against Pseudomonas aeruginosa ATCC 27853 after 24 to 48 hrs by broth microdilution assay; assay type: functional
Klebsiella pneumoniae [23] = experiment: Bactericidal activity against Klebsiella pneumoniae clinical isolate preincubated for 24 to 48 hrs followed by replating on MHA plates and measured after 18 hrs by broth microdilution assay; assay type: functional
Klebsiella pneumoniae [24] = experiment: Antimicrobial activity against Klebsiella pneumoniae clinical isolate after 24 to 48 hrs by broth microdilution assay; assay type: functional
Enterococcus faecalis [25] = experiment: Bactericidal activity against Enterococcus faecalis ATCC 29212 preincubated for 24 to 48 hrs followed by replating on MHA plates and measured after 18 hrs by broth microdilution assay; assay type: functional
Klebsiella pneumoniae [26] = experiment: Antimicrobial activity against Klebsiella pneumoniae ATCC 13883 after 24 to 48 hrs by broth microdilution assay; assay type: functional
Acinetobacter baumannii [27] = experiment: Antimicrobial activity against Acinetobacter baumannii clinical isolate after 24 to 48 hrs by broth microdilution assay; assay type: functional

Work on `CCCCCCCCCCCC[N+](C)(C)Cc1ccccc1.[Br-]` yielded an MIC (Staphylococcus aureus [1]) of 1.5 µg/mL, an MBC (Escherichia coli [2]) of 3.9 µg/mL and an IC50 (HEK293) of 1 µg/mL. The IC50 (HeLa) was 3.98 µg/mL, the Activity (Staphylococcus aureus [3]) was “Active” and the MIC (Escherichia coli [4]) was 3.9 µg/mL. The MBC (Staphylococcus aureus [5]) was 1.5 µg/mL.

`CCCCCCCCCCCC[N+]12CCC(CC1)C(O)C2.[Br-]` (stereo unspecified) was tested, and the MBC (Staphylococcus aureus [6]) was 62.5 µg/mL, the MBC (Acinetobacter baumannii [7]) was 250 µg/mL and the MIC (Staphylococcus aureus [1]) was 15.6 µg/mL. For the same compound, the MBC (Listeria monocytogenes [8]) was 31.2 µg/mL, the MBC (Klebsiella pneumoniae [9]) was 125 µg/mL and the MIC (Staphylococcus aureus [10]) was 62.5 µg/mL. It also gave an MBC (Salmonella typhimurium [11]) of 250 µg/mL, an MBC (Escherichia coli [12]) of 62.5 µg/mL and an MBC (Escherichia coli [2]) of 62.5 µg/mL. The MIC (Escherichia coli [13]) was 62.5 µg/mL, the MIC50 (Aspergillus niger) was 7.8 µg/mL and the MIC90 (Aspergillus niger) was 15.6 µg/mL. The MIC (Acinetobacter baumannii [14]) was 125 µg/mL, the IC50 (HEK293) was 1 µg/mL and the MIC (Listeria monocytogenes [15]) was 31.2 µg/mL. It also gave an MIC50 (Candida albicans) of 1.95 µg/mL, an MIC90 (Candida albicans) of 3.9 µg/mL and an MIC50 (Penicillium citrinum) of 31.2 µg/mL. It also gave an MIC90 (Penicillium citrinum) of 62.5 µg/mL, an MBC (Streptococcus pyogenes [16]) of 0.48 µg/mL and an MIC (Salmonella typhimurium [17]) of 250 µg/mL. For the same compound, the MBC (Acinetobacter baumannii [18]) was 125 µg/mL, the MIC (Enterococcus faecalis [19]) was 15.6 µg/mL and the IC50 (TERT-RPE1) was 8 µg/mL. The MIC (Streptococcus pyogenes [20]) was 0.48 µg/mL, the MBC (Pseudomonas aeruginosa [21]) was 500 µg/mL and the MIC (Escherichia coli [4]) was 62.5 µg/mL. For the same compound, the MIC (Pseudomonas aeruginosa [22]) was 250 µg/mL, the MBC (Staphylococcus aureus [5]) was 15.6 µg/mL and the MBC (Klebsiella pneumoniae [23]) was 250 µg/mL. The MIC (Klebsiella pneumoniae [24]) was 250 µg/mL, the MBC (Enterococcus faecalis [25]) was 15.6 µg/mL and the MIC (Klebsiella pneumoniae [26]) was 125 µg/mL. It also gave an MIC (Acinetobacter baumannii [27]) of 62.5 µg/mL.
